Legend:
Type in all cases: ADME, organism-based
[1] = Cmax in Balb/c mouse at 25 mg/kg, po; parameters: dose 25 mg/kg, route oral; details: in vivo
[2] = AUClast in Balb/c mouse at 3 mg/kg, iv; parameters: dose 3 mg/kg, route intravenous, time 0 - last; details: in vivo
[3] = AUClast in Balb/c mouse at 25 mg/kg, po; parameters: dose 25 mg/kg, route oral, time 0 - last; details: in vivo
[4] = Volume of distribution at steady state in Balb/c mouse at 3 mg/kg, iv; details: in vivo, read-out: Vdss
[5] = Oral bioavailability in Balb/c mouse at 25 mg/kg; details: in vivo

Cmax [1]: 2800 nM
AUC(0-t) [2]: 2.3 µM·h
AUC(0-t) [3]: 5.1 µM·h
Vd [4]: 6.3 L/kg
bioavailability [5]: 27%
SMILES: CNc1cc(Nc2cc(F)cc(F)c2OC)nn2c(C(=O)NC[C@](C)(O)CO)cnc12
